In the test the target is T1, hCRTH2 receptor (Homo sapiens, UniProt Q9Y5Y4).
T1 construct: expressed in transfected cells; host or cells: HEK293
T1 sequence (Q9Y5Y4 1-395): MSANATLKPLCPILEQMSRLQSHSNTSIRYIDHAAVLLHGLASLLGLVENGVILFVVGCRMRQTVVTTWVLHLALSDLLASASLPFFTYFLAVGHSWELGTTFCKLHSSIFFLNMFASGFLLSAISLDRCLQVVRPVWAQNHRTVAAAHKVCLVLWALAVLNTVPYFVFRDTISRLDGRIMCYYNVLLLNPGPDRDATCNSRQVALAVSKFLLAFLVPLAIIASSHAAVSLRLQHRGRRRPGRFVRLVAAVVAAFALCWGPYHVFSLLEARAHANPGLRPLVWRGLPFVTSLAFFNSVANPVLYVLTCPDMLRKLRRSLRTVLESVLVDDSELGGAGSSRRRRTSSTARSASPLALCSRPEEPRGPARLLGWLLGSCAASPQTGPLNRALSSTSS
The test is described as follows: Radioligand displacement assay (3H-PGD2) on hCRTH2 receptor membranes. The format is binding. The note with it: antagonistic activity. For orientation: Loss of bound radioactivity is the signal in a displacement assay; it reports binding, not function.

Where [1] appears, read: 3H-PGD2 radioligand displacement, HEK293-hCRTH2 membranes.
Setting [2] is: 3H-PGD2 displacement on HEK293-hCRTH2 membrane fragments.

Molecules are shown by their SMILES.

Regarding `Cc1cn(CCC(=O)N2Cc3ccccc3C2c2cc(Cl)ccc2OCC(=O)O)c2ccccc12` (racemic) [Example 519], the IC50 under setting [1] is 37.4 nM.

Under setting [1], `O=C(O)COc1ccc(Cl)cc1C1c2ccccc2CN1C(=O)C1CC1c1cccc(F)c1` (stereo not drawn) [Example 523, (4-Chloro-2-{2-trans-[2-(3-fluoro-phenyl)-cyclopropanecarbonyl]-2,3-dihydro-1H-isoindol-1-yl}-phenoxy)-acetic acid] gave an IC50 of 40.5 nM.

As to `Cc1c(C)n(CCC(=O)N2CCc3ccccc3C2c2cc(Cl)ccc2OCC(=O)O)c2ccccc12` (racemic) [Example 389], the IC50 under setting [1] is 70.4 nM.

`Cn1cc(CC(=O)N2CCc3ccccc3C2c2cc(F)ccc2OCC(=O)O)c2ccccc21` (racemic) [Example 137, (±)-(4-Fluoro-2-{2-[2-(1-methyl-1H-indol-3-yl)-acetyl]-1,2,3,4-tetrahydro-isoquinolin-1-yl}-phenoxy)-acetic acid] gave an IC50 under setting [2] of 314 nM.

Consider `COc1cncc(OCC(=O)N2CCc3ccccc3C2c2cc(Cl)ccc2OCC(=O)O)c1` (racemic) [Example 477], for which the IC50 under setting [1] stood at 288 nM.

Molecule `Cc1ncsc1CCOC(=O)N1CCc2c(ccc(F)c2F)[C@H]1c1cc(Cl)ccc1OCC(=O)O` [Example 300, (S)-1-(2-Carboxymethoxy-5-chloro-phenyl)-5,6-difluoro-3,4-dihydro-1H-isoquinoline-2-carboxylic acid 2-(4-methyl-thiazol-5-yl)-ethyl ester] registered an IC50 under setting [1] of 6.39 nM.

Take `O=C(O)COc1ccc(Cl)cc1[C@@H]1c2ccc(F)cc2CCN1C(=O)OCc1ccccc1F` [Example 352, (S)-1-(2-Carboxymethoxy-5-chloro-phenyl)-6-fluoro-3,4-dihydro-1H-isoquinoline-2-carboxylic acid 2-fluoro-benzyl ester]: the IC50 under setting [1] stood at 1.87 nM.

`CCS(=O)(=O)c1cccc2c1CCN(C(=O)OCc1ccccc1)C2c1cc(F)ccc1OCC(=O)O` (racemic) [Example 186] gave an IC50 under setting [2] of 311 nM.

In the case of `O=C(O)COc1ccc(F)cc1C1c2ccccc2CCN1C(=O)Cn1ccc2ccccc21` (racemic) [Example 61, (±)-{4-Fluoro-2-[2-(2-indol-1-yl-acetyl)-1,2,3,4-tetrahydro-isoquinolin-1-yl]-phenoxy}-acetic acid], the IC50 under setting [2] was 846 nM.

Under setting [2], `Cc1cnc(COC(=O)N2CCc3ccccc3[C@H]2c2cc(Cl)ccc2OCC(=O)O)s1` [Example 275, (S)-1-(2-Carboxymethoxy-5-chloro-phenyl)-3,4-dihydro-1H-isoquinoline-2-carboxylic acid 5-methyl-thiazol-2-ylmethyl ester] displayed an IC50 of 5.01 nM.

Take `Cc1ccc([C@@H]2C[C@H]2C(=O)N2CCc3ccccc3C2c2cc(Cl)ccc2OCC(=O)O)cc1` (mixture of isomers) [Example 420]: the IC50 under setting [1] came out at 103 nM.

For the molecule `Cc1nc2ccccc2n1CCOC(=O)N1CCc2c(ccc(F)c2F)[C@H]1c1cc(Cl)ccc1OCC(=O)O` [Example 318], the IC50 under setting [1] was determined as 138 nM.

Molecule `O=C(O)COc1ccc(Cl)cc1C1c2ccccc2CN1C(=O)CCn1ncc2cccc(Cl)c21` (single isomer, unassigned) [Example 548] showed an IC50 under setting [1] of 715 nM.

`COCCOC(=O)N1CCc2ccccc2C1c1cc(F)ccc1OCC(=O)O` (racemic) [Example 172] came in with an IC50 under setting [2] of 59.8 nM.

As to `O=C(O)COc1ccc(Cl)cc1C1c2ccccc2CCN1C(=O)OCCc1ccccc1Cl` (racemic) [Example 176, (±)-1-(2-Carboxymethoxy-5-chloro-phenyl)-3,4-dihydro-1H-isoquinoline-2-carboxylic acid 2-(2-chloro-phenyl)-ethyl ester], the IC50 under setting [2] was 10.4 nM.

As for `O=C(O)COc1ccc(Cl)cc1C1c2ccccc2CCN1C(=O)COc1cccc2cccnc12` (racemic) [Example 411], the IC50 under setting [1] turned out to be 25.7 nM.

`Cn1ccc(COC(=O)N2CCc3ccccc3C2c2cc(Cl)ccc2OCC(=O)O)n1` (racemic) [Example 263] gave an IC50 under setting [2] of 7.91 nM.

Take `Cn1cnc2cc(OCC(=O)N3CCc4ccccc4C3c3cc(Cl)ccc3OCC(=O)O)cnc21` (racemic) [Example 483]: under setting [1], the IC50 was 470 nM.

`O=C(O)COc1ccc(Cl)cc1C1c2ccccc2CN1C(=O)COCc1ccccc1Cl` (racemic) [Example 521]: the IC50 under setting [1] was determined as 9.11 nM.

Consider `COc1ccccc1COCC(=O)N1CCc2ccccc2C1c1cc(F)ccc1OCC(=O)O` (racemic) [Example 198, (±)-(4-Fluoro-2-{2-[2-(2-methoxy-benzyloxy)-acetyl]-1,2,3,4-tetrahydro-isoquinolin-1-yl}-phenoxy)-acetic acid], for which the IC50 under setting [2] was 19 nM.

Turning to `O=C(O)COc1ccc(Cl)cc1C1c2ccccc2CCN1C(=O)OCc1ccc(F)cc1F` (racemic) [Example 248], the IC50 under setting [2] was 3.3 nM.

Under setting [2], `O=C(O)COc1ccc(F)cc1C1c2ccccc2CCN1C(=O)CNS(=O)(=O)c1ccccc1` (racemic) [Example 205] had an IC50 of 928 nM.

With `COc1ccc2[nH]cc(CCC(=O)N3Cc4ccccc4C3c3cc(Cl)ccc3OCC(=O)O)c2c1` (racemic) [Example 511], under setting [1], the IC50 amounted to 14.8 nM.

In turn, `O=C(O)COc1ccc(F)cc1C1c2ccccc2CCN1C(=O)COc1ccccc1Cl` (racemic) [Example 138, (±)-(2-{2-[2-(2-Chloro-phenoxy)-acetyl]-1,2,3,4-tetrahydro-isoquinolin-1-yl}-4-fluoro-phenoxy)-acetic acid] displayed an IC50 under setting [2] of 101 nM.

For the molecule `Cc1[nH]c2ccccc2c1CCC(=O)N1Cc2ccccc2C1c1cc(Cl)ccc1OCC(=O)O` (racemic) [Example 510], the IC50 under setting [1] was 180 nM.

For the molecule `Cc1ccccc1OCCC(=O)N1CCc2ccccc2C1c1cc(F)ccc1OCC(=O)O` (racemic) [Example 147, (±)-{4-Fluoro-2-[2-(3-o-tolyloxy-propionyl)-1,2,3,4-tetrahydro-isoquinolin-1-yl]-phenoxy}-acetic acid], the IC50 under setting [2] worked out at 57.6 nM.

Under setting [1], `O=C(O)COc1ccc(Cl)cc1[C@@H]1c2ccc(F)cc2CCN1C(=O)CCn1ncc2ccc(Cl)cc21` [Example 401, (4-Chloro-2-{(S)-2-[3-(6-chloro-indazol-1-yl)-propionyl]-6-fluoro-1,2,3,4-tetrahydro-isoquinolin-1-yl}-phenoxy)-acetic acid] displayed an IC50 of 46.9 nM.

On to `O=C(O)COc1ccc(F)cc1[C@@H]1c2ccccc2CCN1C(=O)[C@@H]1C[C@H]1c1ccccc1` (single isomer, unassigned) [Example 29], for which the IC50 under setting [2] was 7.72 nM.

`O=C(O)COc1ccc(F)cc1C1c2ccccc2CCN1C(=O)CCc1c[nH]c2ccccc12` (racemic) [Example 51, (±)-{4-Fluoro-2-[2-(3-1H-indol-3-yl-propionyl)-1,2,3,4-tetrahydro-isoquinolin-1-yl]-phenoxy}-acetic acid] registered an IC50 under setting [2] of 30.1 nM.

Consider `Cn1nccc1COC(=O)N1CCc2c(ccc(F)c2F)[C@H]1c1cc(Cl)ccc1OCC(=O)O` [Example 312, (S)-1-(2-Carboxymethoxy-5-chloro-phenyl)-5,6-difluoro-3,4-dihydro-1H-isoquinoline-2-carboxylic acid 2-methyl-2H-pyrazol-3-ylmethyl ester], for which, under setting [1], the IC50 stood at 4.65 nM.

Under setting [2], `O=C(O)COc1ccc(Cl)cc1C1c2ccccc2CCN1C(=O)[C@@H]1C[C@H]1c1ccccc1` (mixture of isomers) [Example 116, (±)-{4-Chloro-2-[2-(trans-2-phenyl-cyclopropanecarbonyl)-1,2,3,4-tetrahydro-isoquinolin-1-yl]-phenoxy}-acetic acid] showed an IC50 of 5.42 nM.

As a reminder, the IC50 is the point on the concentration scale where inhibition reaches its midpoint.

Values taken from patent US8575158B2, “1-phenyl-substituted heterocyclyl derivatives and their use as prostaglandin D2 receptor modulators” (Actelion Pharmaceuticals Ltd., priority 2010, dated 2013).
